In patent publication US8557872B2, “Compounds, isomer thereof, or pharmaceutically acceptable salts thereof as vanilloid receptor antagonist; and pharmaceutical compositions containing the same” (Amorepacific Corporation, priority 2008, dated 2013):

The compounds below were run against T1, vanilloid receptor (Rattus norvegicus, UniProt O35433) (assay: 45Ca influx test (calcium uptake) in primary cultured DRG neurons, capsaicin 0.5 μM). Conditions: rat DRG neurons, capsaicin 0.5 μM, 45Ca; read-out: Antagonist Calcium Uptake Test (IC50).
T1 construct: DRG nerve cells from the primary culture of 2 days were equilibrated by washing 4 times; endogenous in cells; host or cells: primary culture of dorsal root ganglion neurons from neonatal SD rats
Format: cell-based
Description: 1) Separation of Spinal Dorsal Root Ganglia (DRG) in Newborn Rats and Primary Culture Thereof
Neonatal (2-3 day old or younger than 2-3 day old) SD rats were put in ice for 5 minutes to anesthetize and disinfected with 70% ethanol. […] The DRG were incubated sequentially at 37° C. for 30 mins in 200 U/ml collagenase and 2.5 mg/ml trypsin, separately. The ganglia were washed twice with DME/F12 medium supplemented with 10% horse serum, triturated through a fire-polished Pasteur pipette, filtered through Nitex 80 membrane to obtain single cell suspension and the suspension was washed once more. This was subjected to centrifugation, then resuspended in cell culture medium at certain level of cell density. As the cell culture medium, DME/F12 medium supplemented with 10% horse serum was diluted with identical medium conditioned by C6 glioma cells 2 days on a confluent monolayer (1:1), and NGF (Nerve Growth Factor) was added to adjust 200 ng/ml as final concentration. After the cells were grown 2 days in medium where cytosine arabinoside (Ara-C, 100 μM) was added to kill dividing nonneuronal cells, medium was changed to one without Ara-C. The resuspended cells were plated at a density of 1500-2000 neurons/well onto Terasaki plates previously coated with 10 μg/ml poly-D-ornithine.
2) ^45Ca Influx Experiments
DRG nerve cells from the primary culture of 2 days were equilibrated by washing 4 times with HEPES (10 mM, pH 7.4)-buffered Ca^2+, Mg^2+-free HBSS (H-HBSS). The solution in each well was removed from the individual well. Medium containing the test compound plus capsaicin (final concentration 0.5 μM) and ^45Ca (final concentration 10 μCi/ml) in H-HBSS was added to each well and incubated at room temperature for 10 mins. Terasaki plates were washed five times with H-HBSS and dried at room temperature. To each well, 0.3% SDS (10 μl) was added to elute ^45Ca. After the addition of scintillation cocktail of into each well, the amount of ^45Ca influx into neuron was measured by counting radioactivity.

T1 sequence (O35433 whole entry): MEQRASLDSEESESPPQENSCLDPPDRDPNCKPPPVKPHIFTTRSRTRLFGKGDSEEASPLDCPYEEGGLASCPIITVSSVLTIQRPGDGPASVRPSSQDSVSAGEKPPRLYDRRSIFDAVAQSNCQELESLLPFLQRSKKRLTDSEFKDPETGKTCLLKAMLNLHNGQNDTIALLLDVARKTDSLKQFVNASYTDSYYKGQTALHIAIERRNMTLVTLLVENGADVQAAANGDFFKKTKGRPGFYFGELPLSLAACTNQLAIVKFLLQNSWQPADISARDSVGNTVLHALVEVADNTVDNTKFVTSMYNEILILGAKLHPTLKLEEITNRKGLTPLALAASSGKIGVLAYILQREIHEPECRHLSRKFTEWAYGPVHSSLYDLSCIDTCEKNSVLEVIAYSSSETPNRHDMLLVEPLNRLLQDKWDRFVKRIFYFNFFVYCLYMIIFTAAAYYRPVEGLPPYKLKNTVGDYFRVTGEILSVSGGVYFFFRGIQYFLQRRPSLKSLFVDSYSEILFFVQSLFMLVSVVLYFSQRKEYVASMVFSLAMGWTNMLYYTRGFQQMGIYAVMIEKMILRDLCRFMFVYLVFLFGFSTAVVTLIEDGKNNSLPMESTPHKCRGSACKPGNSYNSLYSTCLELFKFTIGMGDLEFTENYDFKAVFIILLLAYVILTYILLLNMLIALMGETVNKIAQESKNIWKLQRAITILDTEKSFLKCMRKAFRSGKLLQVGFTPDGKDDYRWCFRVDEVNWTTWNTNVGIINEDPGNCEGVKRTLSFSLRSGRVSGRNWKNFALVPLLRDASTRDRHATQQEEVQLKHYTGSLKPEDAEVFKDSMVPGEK

Row | Compound | IC50
1 | CC(C)Oc1cc(C(F)(F)F)ccc1/C=C/C(=O)N[C@H](C)c1cc(F)c(NS(C)(=O)=O)c(F)c1 [Example 26, (R)—N-[1-(3,5-Difluoro-4-methanesulfonylamino-phenyl)-ethyl]-3-(2-isopropoxy-4-trifluoromethyl-phenyl)-acrylamide] | 47 nM
2 | CCNc1cc(C(F)(F)F)ccc1/C=C/C(=O)NCc1cc(F)c(NS(C)(=O)=O)c(F)c1 [Example 18, N-(3,5-Difluoro-4-methanesulfonylamino-benzyl)-3-(2-ethylamino-4-trifluoromethyl-phenyl)-acrylamide] | 83 nM
3 | CCOc1cc(C(F)(F)F)ccc1/C=C/C(=O)N[C@H](C)c1ccc(NS(C)(=O)=O)c(F)c1 [Example 9, (R)—N-[1-(3-Fluoro-4-methanesulfonylamino-phenyl)-ethyl]-3-(2-ethoxy-4-trifluoromethyl-phenyl)-acrylamide] | 340 nM
4 | CCCOc1cc(F)ccc1/C=C/C(=O)N[C@H](C)c1cc(F)c(NS(C)(=O)=O)c(F)c1 [Example 27, (R)—N-[1-(3,5-Difluoro-4-methanesulfonylamino-phenyl)-ethyl]-3-(4-fluoro-2-propoxy-phenyl)-acrylamide] | 170 nM
5 | CCCc1cc(C(F)(F)F)ccc1/C=C/C(=O)NCc1cc(C)c(NS(C)(=O)=O)c(F)c1 [Example 23, N-(3-Fluoro-4-methanesulfonylamino-5-methyl-benzyl)-3-(2-propyl-4-trifluoromethyl-phenyl)-acrylamide] | 270 nM
6 | CCOc1cc(C(F)(F)F)ccc1/C=C/C(=O)NCc1cc(F)c(NS(C)(=O)=O)c(C(F)(F)F)c1 [Example 15, 3-(2-Ethoxy-4-trifluoromethyl-phenyl)-N-(3-fluoro-4-methanesulfonylamino-5-trifluoromethyl-benzyl)-acrylamide] | 2400 nM
7 | CCCNc1cc(C(F)(F)F)ccc1/C=C/C(=O)NCc1cc(C)c(NS(C)(=O)=O)c(F)c1 [Example 11, N-(3-Fluoro-4-methanesulfonylamino-5-methyl-benzyl)-3-(2-propylamino-4-trifluoromethyl-phenyl)-acrylamide] | 62 nM
8 | CCc1cc(C(F)(F)F)cc(CC)c1/C=C/C(=O)N[C@H](C)c1cc(F)c(NS(C)(=O)=O)c(F)c1 [Example 17] | 140 nM
9 | C#Cc1cc(CNC(=O)/C=C/c2ccc(C(F)(F)F)cc2OCCC)cc(F)c1NS(C)(=O)=O [Example 14, N-(3-Ethynyl-5-fluoro-4-methanesulfonylamino-benzyl)-3-(2-propoxy-4-trifluoromethyl-phenyl)-acrylamide] | 240 nM
10 | CCCCOc1cc(F)ccc1/C=C/C(=O)N[C@H](C)c1cc(F)c(NS(C)(=O)=O)c(F)c1 [Example 33, (R)-3-(2-Butoxy-4-fluoro-phenyl)-N-[1-(3,5-difluoro-4-methanesulfonylamino-phenyl)-ethyl]-acrylamide] | 150 nM
11 | CCOc1cc(C(F)(F)F)ccc1/C=C/C(=O)NCc1cc(F)c(NS(C)(=O)=O)c(F)c1 [Example 8, N-(3,5-Difluoro-4-methanesulfonylamino-benzyl)-3-(2-ethoxy-4-trifluoromethyl-phenyl)-acrylamide] | 850 nM
12 | CCCCOc1cc(C(F)(F)F)ccc1/C=C/C(=O)N[C@H](CC)c1cc(F)c(NS(C)(=O)=O)c(F)c1 (stereo in doubt) [Example 38, 3-(2-Butoxy-4-trifluoromethyl-phenyl)-N-[1-(3,5-difluoro-4-methanesulfonylamino-phenyl)-propyl]-acrylamide] | 1100 nM
13 | CCOc1cc(C(F)(F)F)ccc1/C=C/C(=O)N[C@H](C)c1cc(F)c(NS(C)(=O)=O)c(F)c1 [Example 7, (R)—N-[1-(3,5-Difluoro-4-methanesulfonylamino-phenyl)-ethyl]-3-(2-ethoxy-4-trifluoromethyl-phenyl)-acrylamide] | 110 nM
14 | CCCc1cc(C(F)(F)F)ccc1/C=C/C(=O)N[C@H](CC)c1cc(F)c(NS(C)(=O)=O)c(F)c1 [Example 25, (R)—N-[1-(3,5-Difluoro-4-methanesulfonylamino-phenyl)-propyl]-3-(2-propyl-4-trifluoromethyl-phenyl)-acrylamide] | 170 nM
15 | CCNc1cc(C(F)(F)F)ccc1/C=C/C(=O)NCc1cc(C)c(NS(C)(=O)=O)c(F)c1 [Example 19, 3-(2-Ethylamino-4-trifluoromethyl-phenyl)-N-(3-fluoro-4-methanesulfonylamino-5-methyl-benzyl)-acrylamide] | 160 nM
16 | CCCCOc1cc(C(F)(F)F)ccc1/C=C/C(=O)NCc1cc(F)c(NS(C)(=O)=O)c(F)c1 [Example 32, 3-(2-Butoxy-4-trifluoromethyl-phenyl)-N-(3,5-difluoro-4-methanesulfonylamino-benzyl)-acrylamide] | 2200 nM
17 | CCCNc1cc(C(F)(F)F)ccc1/C=C/C(=O)NCc1cc(F)c(NS(C)(=O)=O)c(C#N)c1 [Example 13, N-(3-Cyano-5-fluoro-4-methanesulfonylamino-benzyl)-3-(2-propylamino-4-trifluoromethyl-phenyl)-acrylamide] | 120 nM
18 | CCCCc1cc(C(F)(F)F)cc(CCCC)c1/C=C/C(=O)N[C@H](C)c1cc(F)c(NS(C)(=O)=O)c(F)c1 [Example 16, (R)-3-(2,6-Dibutyl-4-trifluoromethyl-phenyl)-N-[1-(3,5-difluoro-4-methanesulfonylamino-phenyl)-ethyl]-acrylamide] | 220 nM
19 | CCNc1cc(C(F)(F)F)ccc1/C=C/C(=O)N[C@H](C)c1cc(F)c(NS(C)(=O)=O)c(F)c1 [Example 10, (R)—N-[1-(3,5-Difluoro-4-methanesulfonylamino-phenyl)-ethyl]-3-(2-ethylamino-4-trifluoromethyl-phenyl)-acrylamide] | 50 nM
20 | CCCCOc1cc(C(F)(F)F)ccc1/C=C/C(=O)N[C@H](C)c1cc(F)c(NS(C)(=O)=O)c(F)c1 [Example 31, (R)-3-(2-Butoxy-4-trifluoromethyl-phenyl)-N-[1-(3,5-difluoro-4-methanesulfonylamino-phenyl)-ethyl]-acrylamide] | 110 nM

Further lines, results first:

Row | IC50 | Compound
21 | 170 nM | CCCc1cc(F)ccc1/C=C/C(=O)N[C@H](C)c1cc(F)c(NS(C)(=O)=O)c(F)c1 [Example 53, (R)—N-[1-(3,5-Difluoro-4-methanesulfonylamino-phenyl)-ethyl]-3-(4-fluoro-2-propyl-phenyl)-acrylamide]
22 | 160 nM | CCCNc1cc(F)ccc1/C=C/C(=O)N[C@H](C)c1cc(F)c(NS(C)(=O)=O)c(F)c1 [Example 29, (R)—N-[1-(3,5-Difluoro-4-methanesulfonylamino-phenyl)ethyl]-3-(4-fluoro-2-propylaminophenyl)-acrylamide]
23 | 46 nM | CCCCc1cc(C(F)(F)F)ccc1/C=C/C(=O)N[C@H](C)c1ccc(NS(C)(=O)=O)c(F)c1 [Example 36, (R)-3-(2-Butyl-4-trifluoromethyl-phenyl)-N-[1-(3-fluoro-4-methanesulfonylamino-phenyl)-ethyl]-acrylamide]
24 | 530 nM | CCCc1cc(C(F)(F)F)ccc1/C=C(\C)C(=O)N[C@H](C)c1cc(F)c(NS(C)(=O)=O)c(F)c1 [Example 48, (R)—N-[1-(3,5-Difluoro-4-methanesulfonylamino-phenyl)-ethyl]-2-methyl-3-(2-propyl-4-trifluoromethyl-phenyl)-acrylamide]
25 | 94 nM | CC(C)Cc1cc(C(F)(F)F)ccc1/C=C/C(=O)N[C@H](C)c1cc(F)c(NS(C)(=O)=O)c(F)c1 [Example 47, (R)—N-[1-(3,5-Difluoro-4-methanesulfonylamino-phenyl)-ethyl]-3-(2-isobutyl-4-trifluoromethyl-phenyl)-acrylamide]
26 | 180 nM | CCCCNc1cc(F)ccc1/C=C/C(=O)NCc1cc(F)c(NS(C)(=O)=O)c(F)c1 [Example 46, 3-(2-Butylamino-4-fluoro-phenyl)-N-(3,5-difluoro-4-methanesulfonylamino-benzyl)-acrylamide]
27 | 320 nM | CCNc1cc(F)ccc1/C=C/C(=O)NCc1cc(F)c(NS(C)(=O)=O)c(F)c1 [Example 43, N-(3,5-Difluoro-4-methanesulfonylaminobenzyl)-3-(4-fluoro-2-ethylaminophenyl)acrylamide]
28 | 210 nM | C[C@@H](NC(=O)/C=C/c1ccc(C(F)(F)F)cc1OCC1CCCCC1)c1cc(F)c(NS(C)(=O)=O)c(F)c1 [Example 50, (R)-3-(2-Cyclohexylmethoxy-4-trifluoromethyl-phenyl)-N-[1-(3,5-difluoro-4-methanesulfonylamino-phenyl)-ethyl]-acrylamide]
29 | 91 nM | CCCc1cc(C(F)(F)F)ccc1/C=C/C(=O)N[C@H](C)c1ccc(NS(C)(=O)=O)c(F)c1 [Example 44]
30 | 340 nM | C[C@@H](NC(=O)/C=C/c1ccc(C(F)(F)F)cc1N1CCCCC1)c1cc(F)c(NS(C)(=O)=O)c(F)c1 [Example 52]
